The record followed here is US20130309224A1 (BOEHRINGER INGELHEIM INTERNATIONAL GMBH, priority 2012, published 2013).

For data set [1], the system named is human follicular lymphoma (DOHH2). In words: Example 4: DOHH2 follicular lymphoma xenograft, A2 with bendamustine, tumor volume. The class given is in vivo, C.B-17 scid mice.
For data set [2], the system named is Raji Burkitt lymphoma cells. The experiment in a line: Apoptosis assay (Annexin V/PI staining, FACS) on Raji cells. The data set is classed as cell-based. The note with it: 48 h, A2 10 μg/ml, AnnexinV positive cells corrected for background.
The nature of data set [3]: Example 4: body weight as indicator of tolerability. The following applies: for tolerability / body weight loss (in words): A2 10 mg/kg, bendamustine 20 mg/kg i.p.
Another data set relates to DoHH2 tumor cells. The experiment in a line: Example 2: DoHH2 human xenograft tumor model, A2 with bendamustine. The following applies: A2 10 mg/kg twice weekly, bendamustine 10 mg/kg twice weekly ip; compared to control treated animals. The class given is in vivo, CB-17 SCID mice. In general terms: A xenograft is tissue or cells of one species grown in another, often human tumour cells in immunodeficient mice.

The test system of data set [4] is Ramos Burkitt lymphoma cells. The experiment in a line: Apoptosis assay (Annexin V/PI staining, FACS) on Ramos cells. The class given is cell-based, human. The note with it: 48 h, A2 10 μg/ml, AnnexinV positive cells corrected for background.
A further data set deals with T1, human CD37 (human, UniProt P11049 1-281, limits assumed).
T1 sequence (looked up): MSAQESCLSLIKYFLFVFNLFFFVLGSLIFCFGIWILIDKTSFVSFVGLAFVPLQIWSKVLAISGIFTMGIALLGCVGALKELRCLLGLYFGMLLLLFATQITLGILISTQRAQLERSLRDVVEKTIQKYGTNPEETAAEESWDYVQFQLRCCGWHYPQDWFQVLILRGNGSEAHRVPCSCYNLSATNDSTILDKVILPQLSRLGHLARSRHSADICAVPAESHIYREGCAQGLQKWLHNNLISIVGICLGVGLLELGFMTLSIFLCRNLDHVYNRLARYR
In words: not described (statement in the discussion of Example 3).

For another data set, the target named is T2, mouse CD37 (mouse, UniProt Q61470 1-281, limits assumed).
T2 sequence (looked up): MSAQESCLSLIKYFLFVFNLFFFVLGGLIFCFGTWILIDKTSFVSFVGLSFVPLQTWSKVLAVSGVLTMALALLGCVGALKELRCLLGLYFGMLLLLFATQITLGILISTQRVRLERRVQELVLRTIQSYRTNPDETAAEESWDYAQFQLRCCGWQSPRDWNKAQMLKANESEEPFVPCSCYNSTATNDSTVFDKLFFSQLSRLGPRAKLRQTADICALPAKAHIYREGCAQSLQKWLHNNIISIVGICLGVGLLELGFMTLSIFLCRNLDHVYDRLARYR
Described as above.

[5] abbreviates: bendamustine concentration 400 μM.

For `Cn1c(CCCC(=O)O)nc2cc(N(CCCl)CCCl)ccc21` [bendamustine, 4-[5-[Bis(2-chloroethyl)amino]-1-methylbenzimidazol-2-yl]butanoic acid, reference compound], the “inhibition of DOHH2 tumor growth (in words)” value in data set [1] (A2 10 mg/kg, bendamustine 20 mg/kg i.p.) was “significant inhibition of tumor growth”. The “CR [x/7]” value in data set [1] (complete tumor regressions, day 16) was determined as 0 x/7. The “tumors growth inhibited (of 7 treated)” value in data set [1] (day 16) is given as 7 tumors. For the same molecule, in data set [1] (median, day 16, vs vehicle control, A2 10 mg/kg i.p. d1,d5,d8,d12,d15, bendamustine 20 mg/kg i.p. two injections), the “TGI [%]” value is reported as 57%. The “PR [x/7]” value in data set [1] (partial tumor regressions, day 16) is 0 x/7. Moreover, the “% apoptotic cells” value in data set [2] (bendamustine concentration 200 μM) came out at 10%; in data set [2] (setting [5]), 13%; in data set [4] (bendamustine concentration 100 μM), 19%; in data set [4] (setting [5]), 35%. The “tolerability / body weight loss (in words)” value in data set [3] is given as “moderately tolerated”; in data set [3] (listed as Bendamustine), “resulted in weight loss”. The “body weight loss in median within the first week of treatment” value in data set [3] (bendamustine i.p. day 2 and 6) was “up to 7.9%”. In the data set on DoHH2 tumor cells, the “anti-tumor effect (tumor growth retardation)” value was “significant anti-tumor effect”.

B1: Antibody A2 (antibody, human IgG1, kappa, V domains shown)
VH: AVQLQQSGPELEKPGASVKISCKASGYSFTGYNMNWVKQNNGKSLEWIGNIDPYYGGTTYNRKFKGKATLTVDKSSSTAYMQLKSLTSEDSAVYYCARSVGPMDYWGQGTSVTVSS
VL: DIQMTQSPASLSASVGETVTITCRTSENVYSYLAWYQQKQGKSPQLLVSFAKTLAEGVPSRFSGSGSGTQFSLKISSLQPEDSGSYFCQHHSDNPWTFGGGTELEIKR
notes: also called mAb A2; MAb A2
As for B1, the binding result with human CD37 is recorded as “binds”; with mouse CD37 it was “no binding”.
